In this experiment the target is GLP-1R (Homo sapiens, UniProt P43220). Briefly: Agonist activity on GLP-1R, HTRF cAMP detection in stably transfected GLP-1R/HEK293 cells. As to conditions: for EC50: 30 min incubation; for Max activity: relative to top concentration of reference GLP-1(7-37). The class given is cell-based. How it is done:
Detection of Agonist Activity of the Test Compounds on GLP-1R
• 1) The test compound was dissolved in DMSO and diluted 4-fold with Bravo for a total of 10 concentration gradients (the starting concentration was 1 mM). […] HBSS (10 mL) pre-warmed at 37° C. was added, mixed gently, and centrifuged at 1000 rpm for 5 minutes. The supernatant was discarded and another 10 mL of […] was added and mixed gently. […] The plate was shaken to mix at 2000 rpm for 60 seconds. • 7) The cells in the 384-well plate were incubated in CO2 cell incubator at 37° C. for 30 min. • 8) 10 μL of HTRF cAMP detection solution was added to the 384-well plate, stick with sealing film, and incubated at room temperature for 1 hour. • 9) After 1 hour of incubation, the sealing film was removed. The plate was put into the EnVision microplate reader to read the values of OD665 nm and OD615 nm.
(In general: Time-resolved FRET reads energy transfer from a long-lived donor to a nearby acceptor.)

The results in this text go back to patent publication US20250282757A1, “ARYL ETHER-SUBSTITUTED HETEROCYCLIC COMPOUNDS AS GLP1R AGONISTS” (MINDRANK AI LTD., priority 2021, published 2025).

Chain of GLP-1R (P43220 24-463): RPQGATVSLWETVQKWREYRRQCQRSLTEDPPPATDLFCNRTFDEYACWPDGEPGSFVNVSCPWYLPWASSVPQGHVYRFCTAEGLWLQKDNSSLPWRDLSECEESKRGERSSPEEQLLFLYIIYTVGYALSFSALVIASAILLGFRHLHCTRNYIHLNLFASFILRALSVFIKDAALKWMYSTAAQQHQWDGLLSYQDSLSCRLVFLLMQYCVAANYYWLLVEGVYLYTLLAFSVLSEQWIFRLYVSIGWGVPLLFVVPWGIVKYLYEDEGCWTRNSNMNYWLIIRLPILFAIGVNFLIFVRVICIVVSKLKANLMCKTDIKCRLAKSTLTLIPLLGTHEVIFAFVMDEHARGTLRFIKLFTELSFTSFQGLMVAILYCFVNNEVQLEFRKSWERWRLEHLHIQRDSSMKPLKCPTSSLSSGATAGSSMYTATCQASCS

As usually defined, the EC50 is the concentration giving half of the maximal effect. A higher EC50 goes with a need for much substance. Regarding `N#CCC1(Cn2c(CN3CCC(Oc4cccc(COc5ccc(C#N)cc5F)n4)CC3)nc3ccc(C(=O)O)cc32)CC1` [Compound 133, 2-((4-((6-((4-cyano-2-fluorophenoxy)methyl)pyridin-2-yl)oxy)piperidin-1-yl)methyl)-1-((1-(cyanomethyl)cyclopropyl)methyl)-1H-benzo[d]imidazole-6-carboxylic acid], the EC50 was determined as 0.264 nM and the Max activity was 126.6%.
On the same counts, the results for `N#CCC1(Cn2c(CN3CCC(Oc4cccc(COc5ccc(C#N)cc5F)n4)CC3)nc3c(F)cc(C(=O)O)cc32)CC1` [Compound 134, 2-((4-((6-((4-cyano-2-fluorophenoxy)methyl)pyridin-2-yl)oxy)piperidin-1-yl)methyl)-1-((1-(cyanomethyl)cyclopropyl)methyl)-4-fluoro-1H-benzimidazole-6-carboxylic acid] are 0.133 nM and 117.3%.
On to `N#CCC1(Cn2c(CN3CCC(Oc4ccc(F)c(COc5ccc(C#N)cc5F)n4)CC3)nc3ccc(C(=O)O)cc32)CC1` [Compound 135, 2-((4-((6-((4-cyano-2-fluorophenoxy)methyl)-5-fluoropyridin-2-yl)oxy)piperidin-1-yl)methyl)-1-((1-(cyanomethyl)cyclopropyl)methyl)-1H-benzo[d]imidazole-6-carboxylic acid], for which the EC50 came out at 0.244 nM and the Max activity came to 109.6%.
With `N#CCC1(Cn2c(CN3CCC(Oc4cccc(COc5ccc(C#N)cc5F)n4)CC3)nc3ccc(C(=O)O)nc32)CC1` [Compound 138, 2-((4-((6-((4-cyano-2-fluorophenoxy)methyl)pyridin-2-yl)oxy)piperidin-1-yl)methyl)-3-((1-(cyanomethyl)cyclopropyl)methyl)-3H-imidazo[4,5-b]pyridine-5-carboxylic acid], a half-maximal effect (EC50) was put at 0.669 nM and the Max activity is listed as 125.0%.
In the same order, the values of `N#Cc1ccc(OCc2cccc(COC3CCN(Cc4nc5ccc(C(=O)O)cc5n4C[C@@H]4CCO4)CC3)n2)c(F)c1` [Compound C1, (S)-2-((4-((6-((4-cyano-2-fluorophenoxy)methyl)pyridin-2-yl)methoxy)piperidin-1-yl)methyl)-1-(oxetan-2-ylmethyl)-1H-benzo[d]imidazole-6-carboxylic acid] are 1190 nM and 76.6%.
On the same counts, the results for `CCn1cncc1Cn1c(CN2CCC(Oc3cccc(OCc4ccc(C#N)cc4F)n3)CC2)nc2ccc(/C=C/C(=O)O)cc21` [Compound C2, (E)-3-(2-((4-((6-((4-cyano-2-fluorobenzyl)oxy)pyridin-2-yl)oxy)piperidin-1-yl)methyl)-1-((1-ethyl-1H-imidazol-5-yl)methyl)-1H-benzo[d]imidazol-6-yl)acrylic acid] are 0.614 nM and 123.1%.
Turning to `CCn1cncc1Cn1c(CN2CCC(Oc3cccc(COc4ccc(Br)cc4F)n3)CC2)nc2ccc(C(=O)O)cc21` [Compound C3, 2-((4-((6-((4-bromo-2-fluorophenoxy)methyl)pyridin-2-yl)oxy)piperidin-1-yl)methyl)-1-((1-ethyl-1H-imidazol-5-yl)methyl)-1H-benzo[d]imidazole-6-carboxylic acid], the midpoint of the response, the EC50, lay at 0.278 nM and the Max activity was 122.3%.
On the same counts, the results for `O=C(O)c1ccc2nc(CN3CCC(Oc4cccc(COc5ccc(Br)cc5F)n4)CC3)n(C[C@@H]3CCO3)c2c1` [Compound C4, (S)-2-((4-((6-((4-bromo-2-fluorophenoxy)methyl)pyridin-2-yl)oxy)piperidin-1-yl)methyl)-1-(oxetan-2-ylmethyl)-1H-benzo[d]imidazole-6-carboxylic acid] are 0.56 nM and 147.9%.
In the same order, the values of `CC1(Cn2c(CN3CCC(Oc4cccc(COc5ccc(C#N)cc5F)n4)CC3)nc3ccc(C(=O)O)cc32)COC1` [Compound C5, 2-((4-((6-((4-cyano-2-fluorophenoxy)methyl)pyridin-2-yl)oxy)piperidin-1-yl)methyl)-1-((3-methyloxetan-3-yl)methyl)-1H-benzo[d]imidazole-6-carboxylic acid] are 2.41 nM and 112.6%.
In the same order, the values of `Cc1ncc(Cn2c(CN3CCC(Oc4cccc(COc5ccc(C#N)cc5F)n4)CC3)nc3ccc(C(=O)O)cc32)n1C` [Compound C6, 2-((4-((6-((4-cyano-2-fluorophenoxy)methyl)pyridin-2-yl)oxy)piperidin-1-yl)methyl)-1-((1,2-dimethyl-1H-imidazol-5-yl)methyl)-1H-benzo[d]imidazole-6-carboxylic acid] are 13.8 nM and 99.8%.
Regarding `N#CCC1(Cn2c(CN3CCC(Oc4cccc(CSc5ccc(Cl)cc5F)n4)CC3)nc3ccc(C(=O)O)cc32)CC1` [Compound C7, 2-((4-((6-((4-chloro-2-fluorophenylthio)methyl)pyridin-2-yl)oxy)piperidin-1-yl)methyl)-1-((1-(cyanomethyl)cyclopropyl)methyl)-1H-benzo[d]imidazole-6-carboxylic acid], a half-maximal effect (EC50) was put at 23.5 nM and the Max activity came to 90.1%.
In the same order, the values of `O=C(O)c1ccc2nc(CN3CCC(Oc4cccc(CSc5ccc(Cl)cc5F)n4)CC3)n(C[C@@H]3CCO3)c2c1` [Compound C8] are 25.6 nM and 117.4%.
On to `CCn1cncc1Cn1c(CN2CCC(Oc3cccc(CSc4ccc(Cl)cc4F)n3)CC2)nc2ccc(C(=O)O)cc21` [Compound C9], for which the EC50 was 3.74 nM and the Max activity stood at 97.2%.
`N#Cc1ccc(SCc2cccc(OC3CCN(Cc4nc5ccc(C(=O)O)cc5n4C[C@@H]4CCO4)CC3)n2)c(F)c1` [Compound C10, (S)-2-((4-((6-((4-cyano-2-fluorophenylthio)methyl)pyridin-2-yl)oxy)piperidin-1-yl)methyl)-1-(oxetan-2-ylmethyl)-1H-benzo[d]imidazole-6-carboxylic acid]: the EC50 was 4.16 nM and the Max activity was determined as 110.2%.
Take `CCn1cncc1Cn1c(CN2CCC(Oc3ccc(F)c(OCc4ccc(Cl)cc4F)n3)CC2)nc2ccc(C(=O)O)cc21` [Compound C11, 2-((4-((6-((4-chloro-2-fluorobenzyl)oxy)-5-fluoropyridin-2-yl)oxy)piperidin-1-yl)methyl)-1-((1-ethyl-1H-imidazol-5-yl)methyl)-1H-benzo[d]imidazole-6-carboxylic acid]: the EC50 came out at 1.48 nM and the Max activity is given as 114.8%.
For `CCn1cncc1Cn1c(CN2CCC(Oc3cccc(CSc4ccc(C#N)cc4F)n3)CC2)nc2ccc(C(=O)O)cc21` [Compound C12, 2-((4-((6-(((4-cyano-2-fluorophenyl)thio)methyl)pyridin-2-yl)oxy)piperidin-1-yl)methyl)-1-((1-ethyl-1H-imidazol-5-yl)methyl)-1H-benzo[d]imidazole-6-carboxylic acid], the EC50 came out at 0.233 nM and the Max activity is 125.5%.
For the compound `N#CCC1(Cn2c(CN3CCC(Oc4cccc(CSc5ccc(C#N)cc5F)n4)CC3)nc3ccc(C(=O)O)cc32)CC1` [Compound C13, 2-((4-((6-(((4-cyano-2-fluorophenyl)thio)methyl)pyridin-2-yl)oxy)piperidin-1-yl)methyl)-1-((1-(cyanomethyl)cyclopropyl)methyl)-1H-benzo[d]imidazole-6-carboxylic acid], the EC50 was 1.82 nM and the Max activity came out at 141.7%.
In the same order, the values of `C#Cc1ccc(OCc2cccc(OC3CCN(Cc4nc5ccc(C(=O)O)cc5n4Cc4cncn4CC)CC3)n2)c(F)c1` [Compound C14] are 0.315 nM and 101.9%.
On the same counts, the results for `C#Cc1ccc(OCc2cccc(OC3CCN(Cc4nc5ccc(C(=O)O)cc5n4C[C@@H]4CCO4)CC3)n2)c(F)c1` [Compound C15, (S)-2-((4-((6-((4-ethynyl-2-fluorophenoxy)methyl)pyridin-2-yl)oxy)piperidin-1-yl)methyl)-1-(oxetan-2-ylmethyl)-1H-benzo[d]imidazole-6-carboxylic acid] are 0.807 nM and 109.1%.
For `N#Cc1ccc(OCc2cccc(NC3CCN(Cc4nc5ccc(C(=O)O)cc5n4C[C@@H]4CCO4)CC3)n2)c(F)c1` [Compound C16, (S)-2-((4-((6-((4-cyano-2-fluorophenoxy)methyl)pyridin-2-yl)amino)piperidin-1-yl)methyl)-1-(oxetan-2-ylmethyl)-1H-benzo[d]imidazole-6-carboxylic acid], the EC50 is 2.54 nM and the Max activity was found to be 99.2%.
On the same counts, the results for `CCn1cncc1Cn1c(CN2CCC(Nc3cccc(COc4ccc(C#N)cc4F)n3)CC2)nc2ccc(C(=O)O)cc21` [Compound C17, 2-((4-((6-((4-cyano-2-fluorophenoxy)methyl)pyridin-2-yl)amino)piperidin-1-yl)methyl)-1-((1-ethyl-1H-imidazol-5-yl)methyl)-1H-benzo[d]imidazole-6-carboxylic acid] are 0.668 nM and 127.7%.
In the same order, the values of `O=C(O)c1ccc2nc(CN3CCC(Oc4cccc(COc5ccc(Br)cc5F)n4)CC3)n(Cc3cncn3CC3CC3)c2c1` [Compound C19, 2-((4-((6-((4-bromo-2-fluorophenoxy)methyl)pyridin-2-yl)oxy)piperidin-1-yl)methyl)-1-((1-(cyclopropylmethyl)-1H-imidazol-5-yl)methyl)-1H-benzo[d]imidazole-6-carboxylicacid] are 1.07 nM and 134.3%.
